Test results as given in PubChem BioAssay AID328 (DTP/NCI, 2004).
Where “and” joins values, the source holds several entries; their conditions need not be identical. Equal entries are not always repeated. Toxic doses and inconclusive results are not listed.

Tested on: BDF1 mice, P388 leukemia ip, median survival T/C
Experiment: NCI In Vivo Anticancer Drug Screen. Data for tumor model P388 Leukemia (intraperitoneal) in B6D2F1 (BDF1) mice
Conditions: endpoint: median survival time, higher = longer survival
Method in brief: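 Compound-treated tumour-bearing mice were compared with vehicle-treated controls. Survival was recorded, and the value is the treated-group measurement divided by the control-group measurement (T/C).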

[1] = dose: 100.0 mg/kg/injection, schedule: Q01DX009 (ip), vehicle: saline with Tween-80
[2] = dose: 100.0 mg/kg/injection, schedule: Q04DX003 (ip), vehicle: saline with Tween-80
[3] = dose: 200.0 mg/kg/injection, schedule: Q01DX009 (ip), vehicle: saline with Tween-80

Structure (SMILES): CCCCCCC(=O)CCCCCCCCCCCCC(=O)OC
- T/C (dose: 1.56 mg/kg/injection, schedule: Q01DX009 (ip), vehicle: saline with Tween-80): 90 % of control
- T/C (dose: 3.13 mg/kg/injection, schedule: Q01DX009 (ip), vehicle: saline with Tween-80): 100 % of control
- T/C (dose: 6.25 mg/kg/injection, schedule: Q01DX009 (ip), vehicle: saline with Tween-80): 95 % of control

Structure (SMILES): FC(F)(F)/C([S-])=C(/[S-])C(F)(F)F.FC(F)(F)/C([S-])=C(/[S-])C(F)(F)F.FC(F)(F)/C([S-])=C(/[S-])C(F)(F)F.FC(F)(F)/C([S-])=C(/[S-])C(F)(F)F.[Fe+3].[Fe+3]
- T/C (dose: 50.0 mg/kg/injection, schedule: Q01DX001 (ip), vehicle: saline with Tween-80): 100 % of control
- T/C (dose: 100.0 mg/kg/injection, schedule: Q01DX001 (ip), vehicle: saline with Tween-80): 104 % of control
- T/C (dose: 200.0 mg/kg/injection, schedule: Q01DX001 (ip), vehicle: saline with Tween-80): 104 % of control

Structure (SMILES): CCCCS(=O)(=O)OCCCCOS(=O)(=O)CCCC
- T/C [1]: 113 % of control
- T/C [2]: 104 % of control
- T/C [3]: 118 % of control
- T/C (dose: 200.0 mg/kg/injection, schedule: Q04DX003 (ip), vehicle: saline with Tween-80): 109 % of control
- T/C (dose: 264.0 mg/kg/injection, schedule: Q04DX003 (ip), vehicle: saline with Tween-80): 91 % of control
- T/C (dose: 400.0 mg/kg/injection, schedule: Q01DX009 (ip), vehicle: saline with Tween-80): 122 % of control
- T/C (dose: 400.0 mg/kg/injection, schedule: Q04DX003 (ip), vehicle: saline with Tween-80): 95 % of control
- T/C (dose: 600.0 mg/kg/injection, schedule: Q04DX003 (ip), vehicle: saline with Tween-80): 104 % of control

Structure (SMILES): C=C1C(=O)O[C@H]2[C@H]1[C@H](OC(=O)/C(C)=C\C)C[C@]1(CO1)[C@@H]1[C@H](OC(C)=O)C=C(C)[C@]21O
- T/C (dose: 10.0 mg/kg/injection, schedule: Q01DX010 (ip), vehicle: steriod suspending solution): 100 % of control
- T/C (dose: 20.0 mg/kg/injection, schedule: Q01DX010 (ip), vehicle: steriod suspending solution): 109 % of control
- T/C (dose: 40.0 mg/kg/injection, schedule: Q01DX010 (ip), vehicle: steriod suspending solution): 118 % of control

Structure (SMILES): CCCSCCSCCC
- T/C (dose: 25.0 mg/kg/injection, schedule: Q04DX003 (ip), vehicle: saline with Tween-80): 100 % of control
- T/C (dose: 50.0 mg/kg/injection, schedule: Q04DX003 (ip), vehicle: saline with Tween-80): 109 % of control
- T/C [2]: 113 % of control

Structure (SMILES): Cc1ccnc(NS(=O)(=O)c2ccc(N=Cc3ccc(N(C)C)cc3)cc2)n1
- T/C (dose: 50.0 mg/kg/injection, schedule: Q01DX009 (ip), vehicle: saline with Tween-80): 90 % of control
- T/C [1]: 93 % of control
- T/C [3]: 90 % of control

Structure (SMILES): CNC/C(C)=C/Br
- T/C (dose: 12.5 mg/kg/injection, schedule: Q01DX009 (ip), vehicle: acetone): 100 % of control
- T/C (dose: 18.75 mg/kg/injection, schedule: Q04DX003 (ip), vehicle: saline): 100 % of control
- T/C (dose: 25.0 mg/kg/injection, schedule: Q01DX009 (ip), vehicle: acetone): 104 % of control
- T/C (dose: 37.5 mg/kg/injection, schedule: Q04DX003 (ip), vehicle: saline): 104 % of control
- T/C (dose: 50.0 mg/kg/injection, schedule: Q01DX009 (ip), vehicle: acetone): 104 % of control
- T/C (dose: 50.0 mg/kg/injection, schedule: Q01DX009 (ip), vehicle: saline): 100 % of control
- T/C (dose: 63.75 mg/kg/injection, schedule: Q01DX001 (ip), vehicle: saline): 100 % of control
- T/C (dose: 75.0 mg/kg/injection, schedule: Q01DX009 (ip), vehicle: saline): 95 % of control
- T/C (dose: 75.0 mg/kg/injection, schedule: Q04DX003 (ip), vehicle: saline): 95 % of control
- T/C (dose: 100.0 mg/kg/injection, schedule: Q01DX009 (ip), vehicle: saline): 115 % of control
- T/C (dose: 110.0 mg/kg/injection, schedule: Q04DX003 (ip), vehicle: saline): 110 % of control
- T/C (dose: 127.5 mg/kg/injection, schedule: Q01DX001 (ip), vehicle: saline): 100 % of control
- T/C (dose: 170.0 mg/kg/injection, schedule: Q04DX003 (ip), vehicle: saline): 110 % of control
- T/C (dose: 200.0 mg/kg/injection, schedule: Q01DX009 (ip), vehicle: saline): 105 % of control
- T/C (dose: 255.0 mg/kg/injection, schedule: Q04DX003 (ip), vehicle: saline): 105 % of control

Structure (SMILES): CCOC(=O)C[n+]1c(C)sc2ccccc21
- T/C (dose: 50.0 mg/kg/injection, schedule: Q01DX005 (ip), vehicle: saline): 99 % of control
- T/C (dose: 100.0 mg/kg/injection, schedule: Q01DX005 (ip), vehicle: saline): 92 % of control
- T/C (dose: 200.0 mg/kg/injection, schedule: Q01DX005 (ip), vehicle: saline): 101 % of control

Structure (SMILES): CC1CN1CC(O)C(O)CN1CC1C (stereo unspecified)
- T/C (dose: 0.09 mg/kg/injection, schedule: Q04DX003 (ip), vehicle: saline): 100 % of control
- T/C (dose: 0.19 mg/kg/injection, schedule: Q04DX003 (ip), vehicle: saline): 103 % of control
- T/C (dose: 0.78 mg/kg/injection, schedule: Q01DX009 (ip), vehicle: saline): 165 % of control
- T/C (dose: 0.78 mg/kg/injection, schedule: Q04DX003 (ip), vehicle: saline): 200 % of control
- T/C (dose: 0.8 mg/kg/injection, schedule: Q01DX009 (ip), vehicle: saline with Tween-80): 225 % of control
- T/C (dose: 1.2 mg/kg/injection, schedule: Q01DX009 (ip), vehicle: saline with Tween-80): 241 % of control
- T/C (dose: 1.3 mg/kg/injection, schedule: Q04DX003 (ip), vehicle: saline): 170 % of control
- T/C (dose: 1.56 mg/kg/injection, schedule: Q01DX009 (ip), vehicle: saline): 203 % of control
- T/C (dose: 1.56 mg/kg/injection, schedule: Q04DX003 (ip), vehicle: saline): 229 % of control and 181 % of control
- T/C (dose: 1.8 mg/kg/injection, schedule: Q01DX009 (ip), vehicle: saline with Tween-80): 250 % of control
- T/C (dose: 2.0 mg/kg/injection, schedule: Q01DX009 (ip), vehicle: saline): 250 % of control
- T/C (dose: 3.0 mg/kg/injection, schedule: Q01DX009 (ip), vehicle: saline): 250 % of control
- T/C (dose: 3.12 mg/kg/injection, schedule: Q01DX009 (ip), vehicle: saline): 203 % of control
- T/C (dose: 3.12 mg/kg/injection, schedule: Q04DX003 (ip), vehicle: saline): 222 % of control
- T/C (dose: 3.3 mg/kg/injection, schedule: Q04DX003 (ip), vehicle: saline): 236 % of control
- T/C (dose: 4.5 mg/kg/injection, schedule: Q04DX003 (ip), vehicle: saline): 200 % of control
- T/C (dose: 5.0 mg/kg/injection, schedule: Q04DX003 (ip), vehicle: saline): 295 % of control
- T/C (dose: 6.25 mg/kg/injection, schedule: Q01DX009 (ip), vehicle: saline): 95 % of control
- T/C (dose: 6.25 mg/kg/injection, schedule: Q04DX003 (ip), vehicle: saline): 231 % of control
- T/C (dose: 6.6 mg/kg/injection, schedule: Q04DX003 (ip), vehicle: saline): 259 % of control
- T/C (dose: 10.0 mg/kg/injection, schedule: Q04DX003 (ip), vehicle: saline): 86 % of control

Structure (SMILES): CCS(=O)(=O)OCCCCOS(=O)(=O)CC
- T/C [1]: 108 % of control

Structure (SMILES): O=C(CC(c1ccccc1)N1CCN(c2ccccc2)CC1)c1ccccc1 (stereo unspecified)
- T/C (dose: 100.0 mg/kg/injection, schedule: Q04DX003 (ip), vehicle: Klucel (hydroxypropylcellulose) (HPC)): 100 % of control
- T/C (dose: 200.0 mg/kg/injection, schedule: Q04DX003 (ip), vehicle: Klucel (hydroxypropylcellulose) (HPC)): 100 % of control
- T/C (dose: 400.0 mg/kg/injection, schedule: Q04DX003 (ip), vehicle: Klucel (hydroxypropylcellulose) (HPC)): 100 % of control
